The record followed here is US20050019854A1, “Novel method for screening inhibitors of the linkage between the neuronal nitric oxide synthase associated protein and the protein inhibiting neuronal nitric oxide synthase” (priority 2001, published 2005).

Ends that are not written are not given here.

Assay [1] addresses T1, PIN (Rattus norvegicus, UniProt P63170).
T1 construct: GST (N, cleaved yes); made in house; host or cells: E. coli BL21 (DE3), vector pGEX-2T
Description: Surface plasmon resonance analysis of PIN binding to immobilized nNOS peptides (Example 1). Background: In SPR one partner is held on a chip, and binding of the other changes the refractive index at the surface.

For assay [2], the target named is T2, binding of the PIN to the nNOS (Rattus norvegicus, UniProt P63170).
T2 construct: catalogue number not given; host or cells: PIN: E. coli BL21 (DE3)
Briefly: ELISA: inhibition of the binding of GST-PIN to immobilized nNOS (Example 2, first method). The following applies: peptide 50 μg/ml. For orientation: ELISA stands for enzyme-linked immunosorbent assay.

In assay [3] the target is T2, binding of the PIN to the nNOS. Briefly: Surface plasmon resonance analysis of inhibition of PIN binding to immobilized nNOS (Example 3). The following applies: for inhibition of the binding of the PIN to the nNOS: SPR.
Assay [4] concerns islets of Langerhans of Zucker (fa/fa) rats. Briefly: Glucose-induced insulin secretion in isolated islets of Zucker (fa/fa) rats (Example 4). The class given is cell-based, rat. The following applies: 2 g/L glucose; for reduction of the insulin response: 1 hour. The procedure: The islets of Langerhans of Zucker (fa/fa) rats are isolated using the collagenase digestion technique of Lacy et al. (Diabetes, 1967). After isolation, the islets are stabilized in Krebs-Ringer containing 0.75 g/L glucose for 45 minutes at 37° C. Groups of three islets are then incubated in Krebs-Ringer with 2 g/L glucose containing increasing concentrations of the molecule C24H18N4O5S (20-100 μM) for 1 hour at 37° C. The liquid supernatant is then recovered and insulin secretion measured by radioimmunology (see FIG. 8).

The target in assay [5] is T3, GST-PIN (PIN with a glutathione S-transferase tag in the N-terminal position) (rat, UniProt P63170 1-89).
T3 construct: Produced in E. coli BL21(DE3) and purified on glutathione sepharose; The thrombin linker between GST and PIN is not described; also called GST-tagged PIN; not shown: Glutathione S-transferase tag of vector pGEX-2T (Pharmacia), N-terminal
Briefly: competition ELISA, GST-PIN preincubated with peptide, nNOS immobilized.

For assay [6], the target named is T4, protein inhibitor of neuronal nitric oxide synthase (PIN), produced by thrombin digestion of GST-PIN (rat, UniProt P63170 1-89).
T4 construct: Released from GST-PIN (vector pGEX-2T) by thrombin digestion; also called PIN protein
Briefly: SPR (BIAcore 2000), peptide immobilized, reference is the normal nNOS peptide.

The target of assay [7] is T3, GST-PIN (PIN with a glutathione …). Briefly: competition ELISA, GST-PIN preincubated with 50 µg/ml peptide, nNOS immobilized.
For assay [8], the target named is T4, protein inhibitor of neuronal nitric …. Description: SPR competition, PIN preincubated with peptide, nNOS immobilized.

T1 sequence (P63170 whole entry): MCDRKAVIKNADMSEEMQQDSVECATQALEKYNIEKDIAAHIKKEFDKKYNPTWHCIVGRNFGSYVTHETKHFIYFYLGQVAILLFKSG
T2 sequence (P63170 whole entry): as above
T3 sequence (P63170 whole entry): as above
T4 sequence (P63170 whole entry): as above

In the case of KDTGIQVDWD [SEQ ID NO: 3], the “Ka (association constant) of PIN for immobilized peptide” value in assay [1] (BIAcore, PIN 5-40 μg/ml, global analysis) was 1.86×10^8. The Kd in assay [1] (BIAcore, PIN 5-40 μg/ml, global analysis, read-out: Kd (dissociation constant) of PIN for immobilized peptide) stood at 5.38 nM. Further, in assay [1] (SPR, ratio vs normal peptide), the “affinity of the PIN protein for the mutant peptide relative to the normal peptide” value is on record as “two times greater”. The “inhibition of the binding of the PIN to the nNOS” value in assay [2] is “up to 71%”; in assay [3] (peptide 5 μg/ml) it was 59%; in assay [3] (peptide 30 μg/ml), 90%; in assay [3] (peptide 40 μg/ml) it was 91%. The IC50 in assay [3] (SPR inhibition curves, FIG. 7D, read-out: inhibition constant (Ki: IC50)) is 4 µM.

Consider `CC[C@H](C)[C@H](N)C(=O)N[C@@H](CC(=O)O)C(=O)N[C@H](C(=O)NCC(=O)N[C@H](C(=O)N[C@@H](CCC(N)=O)C(=O)N[C@H](C(=O)N[C@@H](CC(=O)O)C(=O)N[C@@H](Cc1c[nH]c2ccccc12)C(=O)N[C@@H](CC(=O)O)C(=O)O)C(C)C)[C@@H](C)CC)C(C)C` [SEQ ID NO: 4], for which the “inhibition of the binding of the PIN to the nNOS” value in assay [2] is on record as ≤ 78%; in assay [3] (peptide 1 μg/ml), 75%; in assay [3] (peptide 10 μg/ml), 98%.

Take `CCOc1ccc(N2C(=O)NC(=O)/C(=C\c3ccc(Sc4nc5ccccc5[nH]4)o3)C2=O)cc1` [C24H18N4O5S]: the “concentration from which insulin secretion is blocked in a dose-dependant fashion” value in assay [4] (tested 20-100 μM) was ≥ 50 µM. For the same molecule, the “reduction of the insulin response” value in assay [4] (molecule 50 μM) turned out to be 36%; in assay [4] (molecule 100 μM), 79%.

B1: mutant nNOS peptide represented by sequence SEQ ID NO: 3 (Lys-Asp-Thr-Gly-Ile-Gln-Val-Asp-Trp-Asp) (peptide)
peptide: KDTGIQVDWD
notes: Synthetic 10-mer; It differs from the normal peptide by Arg to Trp at position 9
For the molecule B1, in assay [5], the concentration for half-maximal inhibition (IC50) was 5 µM. Moreover, in assay [6], the “fold affinity against the normal peptide” value came out at 2 fold. For the same molecule, the “percent inhibition of PIN-nNOS binding” value in assay [7] amounted to 71%.

B2: normal (non-mutant) nNOS peptide Lys Asp Thr Gly Ile Gln Val Asp Arg Asp (nNOS amino acids 229-238) (peptide)
peptide: KDTGIQVDRD
notes: Made by Fmoc solid phase synthesis; also called normal peptide; normal nNOS peptide
In the case of B2, the half-inhibitory concentration (IC50) in assay [5] came to 300 µM. Besides, the “percent inhibition of PIN-nNOS binding” value in assay [7] was determined as 14%.

Turning to IDVGIQVDWD (Synthetic 10-mer) [mutant nNOS peptide represented by sequence SEQ ID NO: 4 (Ile-Asp-Val-Gly-Ile-Gln-Val-Asp-Trp-Asp)], the results for the half-maximal inhibitory concentration (IC50) in assay [8] and in assay [5] were 400 nM and 0.5 µM, respectively. Besides, in assay [7], the “percent inhibition of PIN-nNOS binding” value turned out to be 78%.

What is called Kd is a measure of binding affinity in units of concentration. For orientation: IC50 means the midpoint of a concentration-inhibition curve.
